# Source: patent publication US20250281465A1, “MOLECULES THAT ENHANCE EXTRACELLULAR VESICLE RELEASE” (priority 2022, published 2025)
# “Also recorded” adds a separate entry of the source.
# What was measured:
# [1] = system: THP-1 cells; assay: Intracellular Ca2+ influx screening (Fura-2) in THP-1 cells; type: cell-based, human; conditions: hit candidate compounds 10 μM, 25 minutes, vs vehicle control (DMSO)
# Description: FIGS. 1A-1D. Intracellular Ca^2+ influx screening of 84 HTS hit candidate compounds. (A) THP-1 cells were loaded with the ratiometric Ca^2+ indicator, Fura-2, and treated with lonomycin (ION, 1 μM), Thapsigargin (1 μM), or 84 hit candidate compounds (10 μM) for 25 minutes. Data are presented as the area under the curve (AUG) of OD340/380 ratios corresponding to the intracellular Ca^2+ kinetics. The baseline-subtracted AUG was calculated using GraphPad Prism (GraphPad Software, San Diego, CA). (B) Ca^2+ mobilization by compound #634. mBMDCs were loaded with the ratiometric Ca^2+ indicator, Fura-8, and treated with ION (1 μM), or #634 (2 and 10 μM) for 25 minutes. The dashed line indicates the timing of compounds added. The data shown are representative of three independent experiments showing similar results. (C) Ca^2+ add-back assay. Fura-8-loaded mBMDC were treated with ION (1 μM), or compound #634 (2 μM, 10 μM) for 15 minutes in the absence of extracellular Ca^2+, and then Ca^2+ (final 1.8 mM) was added at 15 minutes. Data shown are representative of three independent experiments showing similar results. (D) C57BL/6 mice (n=5/group) were intramuscularly immunized with ovalbumin (OVA, 20 μg/mouse) adjuvanted with compound #634 (200 nmol/mouse), or Veh (10% DMSO) on days 0 and 21 and bled on day 28. OVA-specific IgGI and IgG2c levels in sera were determined by ELISA. **p<0.01, ***p<0.001, ns (not significant) by KruskalWallis tests with Dunn's post hoc test vs. Veh.
# FIGS. 18A-18C. Compound 634 induces intracellular Ca^2+ levels in mBMDCs. […] The time-response pattern of intracellular Ca^2+ levels was recorded for 25 minutes. AUC of OD340/380 ratios corresponds to the intracellular Ca^2+ kinetics, and the baseline-subtracted AUC was calculated by GraphPad Prism. […]
# FIGS. 24A-24B. […] The time-response pattern of intracellular Ca^2+ levels was recorded with a plate reader for 25 minutes. (A) The AUC of OD340/380 ratios corresponds to the intracellular Ca^2+ kinetics and the baseline-subtracted AUC was calculated by GraphPad Prism (FIG. 36). […]
# [2] = system: mBMDCs; assay: Cell viability / cytotoxicity in mBMDCs (MTT); type: cell-based, mouse; conditions: mBMDCs, Example 2 clustered hits
# Description: FIGS. 30A-30B. […] After 48 hours incubation, cell viability was determined by MTT assay.
# mBMDCs (10^5 cells/200 μL/well) were treated with 10 and 5 μM of a test compound in 96-well plates overnight. After 18 hours of drug treatment, MTT (0.5 mg/ml) was added to each well. The cells were lysed after 6-8 hours incubation, and absorbance values at 570 and 650 nm were measured. PrestoBlue reagent (#A13261, Thermo Fisher Scientific) was used for cell viability assay in CD63 HTS as described earlier.
# Cell viability assay. mBMDCs (2×10^6 cells/200 μL/well in RPMI1640 supplemented with dialyzed 10% FBS, or 1.5×10^6 cells/200 μL/well in RPMI1640 supplemented with 10% exosome depleted FBS) were treated with 10 μM of each test compound in 96-well plates. After 46-48 hours of compound treatment, MTT (0.5 mg/mL) was added to each well. The cells were lysed after overnight incubation, and absorbance values at 570 and 650 nm were measured.
# [3] = system: NF-κB; assay: NF-κB-bla THP-1 HTS; type: cell-based, human; conditions: 10 μM, 5 hours
# Description: The robotic HTS using the three reporter cells were performed using 384-well plates by the SelectScreen™ service, Thermo Fisher Scientific (Madison, WI) (Pu et al., 2012; Chan et al., 2017b; Shukla et al., 2018). For HTS using NF-κB-bla and ISRE-bla THP-1 cells, LPS (100 ng/ml) and human IFN-α (50 nM) were used as the positive controls, respectively, while 0.5% DMSO was used as vehicle (Veh). The cells were incubated with compounds (10 μM) for 5 hours, and LiveBLAzer™ FRET BIG substrate (CCF4-AM) mixture was added. Fluorescence was measured at an excitation wavelength of 405 nm, and emission wavelengths of 465 and 535 nm. The background values were subtracted from the raw values (cell-free wells at the same fluorescence wavelength). Emission ratios were calculated by dividing background-subtracted values from em1ss1on wavelength of 465 nm by those from emission wavelength of 535 nm. The response ratio (RR) was calculated as follows (emission ratio of a test well)/(average emission ratio of wells with Veh). Further, for comparison of activity, “% activation” for each compound was computed within the plate as 100×(compound RR−average Veh RR)/(average LPS RR−average Veh RR).
# [4] = system: mBMDCs; assay: EV release from mBMDCs (differential ultracentrifugation, MRPS); conditions: 10 μM, 46-48 h, vs Veh
smiles,measurement,setting,value
COC(=O)c1sc(-c2cccs2)cc1NS(=O)(=O)c1ccsc1C(=O)OC [#504],intracellular Ca^2+ increase (Fura-2 assay),[1],higher intracellular Ca^2+ increase than vehicle control; also recorded: potent in calcium Fura-2 assay
same,MTT assay values (cell viability),[2],higher MTT values
same,NF-κB activity (primary HTS),[3],much lower NF-κB inducing activity
same,number of EV particles released in the culture supernatant,[4],low
